The data set in a line: Levothyroxine solubilization in aqueous amino acid solutions. In kind it is physicochemical. Particulars: aqueous buffer. The method, then:
The formulations can further include one or more pH adjusters, for example, a single pH adjuster. The pH adjuster can be an amino acid, which can be the sole amino acid and pH adjuster in the formulation. The pH adjuster serves to aid in adjusting the pH of the aqueous formulation and selectively the solubilization of levothyroxine or any salt thereof in the liquid formulation. In one or more embodiments, the pH adjuster is arginine. In water, a concentration of arginine from about 1 mg/mL to about 20 mg/mL adjust the pH of water to about 10.3 to about 11.

Converted amounts (≈) assume the structure as drawn.

This note sets out measurements from US20200237695A1, “LEVOTHYROXINE LIQUID FORMULATIONS” (Hikma Pharmaceuticals USA Inc., priority 2019, published 2020).

As usually defined, the solubility is the concentration that dissolves in the medium under given conditions. Read a low solubility as little dissolved substance.

Molecule `N[C@@H](Cc1cc(I)c(Oc2cc(I)c(O)c(I)c2)c(I)c1)C(=O)O` [levothyroxine, 4-(4-hydroxy-3,5-diiodophenoxy)-3,5-diiodo-L-phenylalanine] yielded a solubility (aqueous arginine solution, arginine in aqueous solutions) above 500 µg/mL; a solubility (aqueous aspartic acid solution, aspartic acid 1 mg/mL in water) of 450 µg/mL (≈ 579 µM); a solubility (aqueous aspartic acid solution, aspartic acid 4 mg/mL in water) of 100 µg/mL (≈ 129 µM).
